Patent publication US6951647B2, “T cell binding ligand peptides and method of inducing a cellular immune response” (Cel-Sci Corporation, priority 2001, dated 2005)
Values joined by “and” are separate entries in the source; they are usually repeats but may differ in a detail not shown here. Equal values may be shown once.

Key:
[1] = system: modified HGP-30 (mH, SEQ ID NO:6); experiment: Isotype analysis (ELISA) of anti-mH antibody in sera of immunized mice; format: in vivo; parameters: IgG1 / IgG2a / IgG2b / IgG3: unit not given here; settings: for IgG1 / IgG2a / IgG2b / IgG3: ELISA signal, day 42 test bleeding; for Ig1, serial dilution 1:200 / Ig1, serial dilution 1:800 / Ig1, serial dilution 1:3200 / Ig1, serial dilution 1:12800 / Ig1, serial dilution 1:51200 / Ig1, serial dilution 1:204800 / Ig2a, serial dilution 1:200 / Ig2a, serial dilution 1:800 / Ig2a, serial dilution 1:3200 / Ig2a, serial dilution 1:12800 / Ig2a, serial dilution 1:51200 / Ig2a, serial dilution 1:204800 / Ig2b, serial dilution 1:200 / Ig2b, serial dilution 1:800 / Ig2b, serial dilution 1:3200 / Ig2b, serial dilution 1:12800 / Ig2b, serial dilution 1:51200 / Ig2b, serial dilution 1:204800 / Ig3, serial dilution 1:200 / Ig3, serial dilution 1:800 / Ig3, serial dilution 1:3200 / Ig3, serial dilution 1:12800 / Ig3, serial dilution 1:51200 / Ig3, serial dilution 1:204800: day 28 pool
Protocol: (§1) Mice in groups (5-10 animals per group as designated) are immunized with the LEAPS constructs (25 μg/dose) of SEQ ID NO's:37, 38 and 39, in 0.2 mL emulsified 1:1 with adjuvant (Seppic's ISA-51 or Corixa's microfluidized MPL S/E) on days 0 and 14. Mice are evaluated by Delayed Type of Hypersensitivity (DTH) by inoculation on day 26 with 20 μl of a solution of saline or mH (SEQ ID NO:6) (25 μg in saline) in the left or right ear respectively. The DTH response is determined by measurement of the ear thickness 48 hours later and expressed as increase in ear thickness (mm) of experimental ear compared to that of the control ear. Individual animal sera are collected for measurement of antibody on day 28, 42, 63 and 77. Sera from individual animals and group pools are evaluated for specific anti-mH antibody, for total antibody, IgG1, IgG2a and IgG3 antibody isotype and cross clade titer at selected time points as indicated.
The results of an isotype analysis of day 42 test bleedings with G′-mH (SEQ ID NO:37), G-mH (SEQ ID NO:38), J-mH (SEQ ID NO:39), F-mH (SEQ ID NO:40) and F-HGP-30 (SEQ ID NO:41), are shown in Table 1.
An isotype analysis for pools of day 28 test bleedings G-mH, G′-mH and m-HGP-30/KLH using either MPL S/E or ISA51 as adjuvant, are shown in Table 3.

B Clade = experiment: ELISA cross clade recognition by sera of immunized mice, B Clade; format: in vivo; settings: for ELISA test antigen B Clade: day 42 test bleeding
Protocol: as §1
The mouse sera for the ELISA was used at a dilution of 1:200. Again, clearly, the construct provides higher signals indicative of higher levels of the antibodies that recognized other clades besides the parental one (Clade B) of mH.
A cross clade analysis for pools of day 42 test bleedings from the same groups as used in Table 3, were obtained and the results are shown in Table 4.

[2] = group without '(with MPL)' (ISA51)

DGQ EEK AGV VST GLI GGG ATL YSV HQR IDV KDT KEA LEK IEE EQN KS (DGQEEKAGVVSTGLIGGGYLSGANLNL) [SEQ ID NO: 57, Peptide G′ linked by GGG spacer to modified HGP-30 (mH)]
IgG1 ([1]; group Average): 2.667
IgG2a ([1]; group Average): 1.427
IgG2b ([1]; group Average): 1.695
IgG3 ([1]; group Average): 1.562
IgG1 ([1]; individual mouse): 2.577 and 2.623 and 2.588 and 2.601 and 2.757 and 2.886 and 2.768 and 2.574 and 2.628 and 2.671
IgG2a ([1]; individual mouse): 1.399 and 1.302 and 1.630 and 0.467 and 1.249 and 2.275 and 0.998 and 1.693 (2×) and 1.566
IgG2b ([1]; individual mouse): 2.050 and 1.588 and 1.735 and 0.534 and 1.261 and 2.717 and 1.656 and 2.009 and 1.613 and 1.785
IgG3 ([1]; individual mouse): 1.853 and 1.268 and 1.856 and 1.229 and 2.186 and 1.921 and 1.276 and 2.181 and 0.672 and 1.183
Ig1, serial dilution 1:200 [1, 2]: 3.006
Ig1, serial dilution 1:800 [1, 2]: 2.441
Ig1, serial dilution 1:3200 [1, 2]: 1.755
Ig1, serial dilution 1:12800 [1, 2]: 1.069
Ig1, serial dilution 1:51200 [1, 2]: 0.367
Ig1, serial dilution 1:204800 [1, 2]: 0.114
Ig2a, serial dilution 1:200 [1, 2]: 0.729
Ig2a, serial dilution 1:800 [1, 2]: 0.218
Ig2a, serial dilution 1:3200 [1, 2]: 0.068
Ig2a, serial dilution 1:12800 [1, 2]: 0.025
Ig2a, serial dilution 1:51200 [1, 2]: 0.015
Ig2a, serial dilution 1:204800 [1, 2]: 0.008
Ig2b, serial dilution 1:200 [1, 2]: 1.420
Ig2b, serial dilution 1:800 [1, 2]: 0.505
Ig2b, serial dilution 1:3200 [1, 2]: 0.134
Ig2b, serial dilution 1:12800 [1, 2]: 0.054
Ig2b, serial dilution 1:51200 [1, 2]: 0.014
Ig2b, serial dilution 1:204800 [1, 2]: 0.000
Ig3, serial dilution 1:200 [1, 2]: 1.132
Ig3, serial dilution 1:800 [1, 2]: 0.358
Ig3, serial dilution 1:3200 [1, 2]: 0.092
Ig3, serial dilution 1:12800 [1, 2]: 0.020
Ig3, serial dilution 1:51200 [1, 2]: 0.004
Ig3, serial dilution 1:204800 [1, 2]: 0.000
Ig1, serial dilution 1:200 ([1]; with MPL): 2.642
Ig1, serial dilution 1:800 ([1]; with MPL): 1.638
Ig1, serial dilution 1:3200 ([1]; with MPL): 0.652
Ig1, serial dilution 1:12800 ([1]; with MPL): 0.279
Ig1, serial dilution 1:51200 ([1]; with MPL): 0.091
Ig1, serial dilution 1:204800 ([1]; with MPL): 0.014
Ig2a, serial dilution 1:200 ([1]; with MPL): 1.961
Ig2a, serial dilution 1:800 ([1]; with MPL): 0.899
Ig2a, serial dilution 1:3200 ([1]; with MPL): 0.263
Ig2a, serial dilution 1:12800 ([1]; with MPL): 0.081
Ig2a, serial dilution 1:51200 ([1]; with MPL): 0.028
Ig2a, serial dilution 1:204800 ([1]; with MPL): 0.005
Ig2b, serial dilution 1:200 ([1]; with MPL): 1.872
Ig2b, serial dilution 1:800 ([1]; with MPL): 0.881
Ig2b, serial dilution 1:3200 ([1]; with MPL): 0.253
Ig2b, serial dilution 1:12800 ([1]; with MPL): 0.104
Ig2b, serial dilution 1:51200 ([1]; with MPL): 0.011
Ig2b, serial dilution 1:204800 ([1]; with MPL): 0.006
Ig3, serial dilution 1:200 ([1]; with MPL): 1.965
Ig3, serial dilution 1:800 ([1]; with MPL): 0.805
Ig3, serial dilution 1:3200 ([1]; with MPL): 0.215
Ig3, serial dilution 1:12800 ([1]; with MPL): 0.045
Ig3, serial dilution 1:51200 ([1]; with MPL): 0.005
Ig3, serial dilution 1:204800 ([1]; with MPL): 0.000
Levels of TH1 preferred isotypes relative to TH2 isotype (IgG1) ([1]; day 42 test bleedings, Table 1, in words): significantly higher signals
ELISA test antigen B Clade (B Clade; group (A), Group Average): 0.346
ELISA test antigen B Clade (B Clade; group (A), individual mouse): 0.271 and 0.000 and 0.036 and 0.507 and 0.187 and 1.074
ELISA test antigen B Clade (B Clade; group (B), Group Average): 1.410
ELISA test antigen B Clade (B Clade; group (B), individual mouse): 2.348 and 0.496 and 1.799 and 1.228 and 2.244 and 0.349
ELISA signal on B Clade (B Clade; day 63 test bleeding, sera 1:200, individual mouse): 1.667 and 0.160 and 0.099 and 0.236 and 1.547 and 0.470 and 1.138 and 0.994 and 0.000 and 0.505
